Laboratory results: patent US11892406B2, “Method and device for assaying the interaction and dynamics of permeation of a molecule and a lipid bilayer” (DUBLIN CITY UNIVERSITY, priority 2018, dated 2024)

Key:
Format in all cases: in vitro ADME
[1] = Metal enhanced fluorescence permeation assay, DOPC bilayer spanned over gold microcavity array
Description: (§1) Following removal of PS spheres, if in place, washing and aqueous filling of the array a Langmuir monolayer of lipids was spread across the micropore array, using either a Model 102M, LB trough or Model KN2006 from KSV-NIMA technology, LB alternate. The lipid mixture (across single or diverse lipid compositions) was prepared in chloroform at a concentration of 1 mg/ml. 50 μL of this solution was suspended on the water sub-phase. Fifteen minutes were allocated for evaporation of the solvent, prior to lipid monolayer compression. […]
(§2) A Horiba Labram HR instrument was used for both Raman and fluorescence measurements using a 50× long distance magnification objective (Leica). The wavelengths were typically 473 nm and 785 nm were used for fluorescence measurements and Raman measurements respectively. […] Typically a 1% neutral density filter and 300 μm slit were used for fluorescence and no filter for Raman. […]
(§3) For drug/molecular diffusion studies, drug solutions were prepared as stock solutions for introduction into the bilayer contacting solution dissolved in PBS or Tris buffer at concentrations that permitted final concentrations (on contact with the bilayer buffer) of 1 nM to several millimolar. […] Drug diffusion samples were analysed by first obtaining a bilayer spectra while sample is immersed in PBS. […]

[2] = Metal enhanced fluorescence permeation assay, ternary domain forming lipid bilayer on gold microcavity array; settings: 0.1 mM
Description: as §1, §2, §3

[3] = SERS permeation assay, DOPC lipid bilayer suspended over gold cavity array; settings: 1 um gold array, PBS buffer, 785 nm
Description: as §1, §2, §3

## COc1cccc2c1C(=O)c1c(O)c3c(c(O)c1C2=O)C[C@@](O)(C(=O)CO)C[C@@H]3O[C@H]1C[C@H](N)[C@H](O)[C@H](C)O1 [Doxorubicin]
[1]; 0.1 mM, 2-hour monitoring, 1 μm diameter gold array
  permeation through DOPC bilayer (fluorescent peak area at 600 nm vs time): diffusing through the bilayer

## COc1cccc2c1C(=O)c1c(O)c3c(c(O)c1C2=O)C[C@@](O)(C(C)=O)C[C@@H]3O[C@H]1C[C@H](N)[C@H](O)[C@H](C)O1 [Duanorubicin]
[2]; 2-hour window, two replicate measurements, DOPC:SM:Chol 40:40:20
  permeability of ternary lipid bilayer to the drug: impermeable
[2]; unstirred solution, ternary bilayer
  time for emission to reach steady state: less than 20 mins

## CC(C)Cc1ccc(C(C)C(=O)O)cc1 (centres unmarked) [Ibuprofen]
[3]
  permeability across DOPC bilayer (dynamics of evolution of SERS signal, presence vs absence of bilayer): passively permeable

## [Ru+2].c1ccc(-c2ccccn2)nc1.c1ccc(-c2ccccn2)nc1.c1ccc(-c2ccccn2)nc1 [[Ru(bpy)3[ complex]
[1]; DOPC bilayers, fluorescence
  membrane permeability at DOPC bilayers (second emission rise and plateau): impermeable
